Measurements as given in PubChem BioAssay AID1259407 (Chemical Carcinogenesis Research Information System (CCRIS), 2018).
The source made the active and inactive calls. No rule for the calls is given here.

Test system: CCRIS mutagenicity, Ames/micronucleus/aberration tests
Test: CCRIS mutagenicity studies

Measured: mutagenic call

CC(C)N=C=NC(C)C
active: End Point: In vivo micronucleus, Test System: Peripheral blood erythrocytes, Species: Mouse, Strain/Sex: B6C3F1/Female, Route: Dermal active; positive; 100% mortality at 280 mg/kg | End Point: In vivo micronucleus, Test System: Peripheral blood erythrocytes, Species: Mouse, Strain/Sex: B6C3F1/Male, Route: Dermal active; positive; 100% mortality at 280 mg/kg | End Point: In vivo micronucleus, Test System: Polychromatic erythrocytes (Bone marrow and peripheral blood), Species: Mouse, Strain/Sex: B6C3F1/Male, Route: Intraperitoneal active; positive in peripheral blood polychromatic erythrocytes; no significant increase | Test System: MOUSE LYMPHOMA, Strain/Indicator: L5178Y (TK+/TK-), Metabolic Activation: NONE, Method: SUSPENSION/PLATE active; positive. reevaluation of results: positive | Test System: MOUSE LYMPHOMA, Strain/Indicator: L5178Y (TK+/TK-), Metabolic Activation: RAT, LIVER, S-9, AROCLOR 1254, Method: SUSPENSION/PLATE active; positive. reevaluation of results: positive
inactive: End Point: In vivo micronucleus, Test System: Bone marrow polychromatic erythrocytes, Species: Mouse, Strain/Sex: B6C3F1/Male, Route: Intraperitoneal inactive; negative | End Point: In vivo micronucleus, Test System: Bone marrow polychromatic erythrocytes, Species: Rat, Strain/Sex: F344/N/Male, Route: Intraperitoneal inactive; negative | End Point: In vivo micronucleus, Test System: Peripheral blood normochromatic and polychromatic erythrocytes and bone marrow polychromatic erythrocytes, Species: Mouse, Strain/Sex: B6C3F1/Male, Route: Dermal inactive; positive (peripheral blood); negative (bone marrow) | Test System: AMES SALMONELLA TYPHIMURIUM, Strain/Indicator: TA98, Metabolic Activation: HAMSTER, LIVER, S-9, AROCLOR 1254, Method: STANDARD PLATE inactive; negative | Test System: AMES SALMONELLA TYPHIMURIUM, Strain/Indicator: TA98, Metabolic Activation: NONE, Method: STANDARD PLATE inactive; negative | Test System: AMES SALMONELLA TYPHIMURIUM, Strain/Indicator: TA98, Metabolic Activation: RAT, LIVER, S-9, AROCLOR 1254, Method: STANDARD PLATE inactive; negative | Test System: AMES SALMONELLA TYPHIMURIUM, Strain/Indicator: TA100, Metabolic Activation: HAMSTER, LIVER, S-9, AROCLOR 1254, Method: STANDARD PLATE inactive; negative | Test System: AMES SALMONELLA TYPHIMURIUM, Strain/Indicator: TA100, Metabolic Activation: NONE, Method: STANDARD PLATE inactive; negative | Test System: AMES SALMONELLA TYPHIMURIUM, Strain/Indicator: TA100, Metabolic Activation: RAT, LIVER, S-9, AROCLOR 1254, Method: STANDARD PLATE inactive; negative | Test System: AMES SALMONELLA TYPHIMURIUM, Strain/Indicator: TA1535, Metabolic Activation: HAMSTER, LIVER, S-9, AROCLOR 1254, Method: STANDARD PLATE inactive; negative | Test System: AMES SALMONELLA TYPHIMURIUM, Strain/Indicator: TA1535, Metabolic Activation: NONE, Method: STANDARD PLATE inactive; negative | Test System: AMES SALMONELLA TYPHIMURIUM, Strain/Indicator: TA1535, Metabolic Activation: RAT, LIVER, S-9, AROCLOR 1254, Method: STANDARD PLATE inactive; negative | Test System: AMES SALMONELLA TYPHIMURIUM, Strain/Indicator: TA1537, Metabolic Activation: HAMSTER, LIVER, S-9, AROCLOR 1254, Method: STANDARD PLATE inactive; negative | Test System: AMES SALMONELLA TYPHIMURIUM, Strain/Indicator: TA1537, Metabolic Activation: NONE, Method: STANDARD PLATE inactive; negative | Test System: AMES SALMONELLA TYPHIMURIUM, Strain/Indicator: TA1537, Metabolic Activation: RAT, LIVER, S-9, AROCLOR 1254, Method: STANDARD PLATE inactive; negative | Test System: AMES SALMONELLA TYPHIMURIUM, Strain/Indicator: TA1538, Metabolic Activation: HAMSTER, LIVER, S-9, AROCLOR 1254, Method: STANDARD PLATE inactive; negative | Test System: AMES SALMONELLA TYPHIMURIUM, Strain/Indicator: TA1538, Metabolic Activation: NONE, Method: STANDARD PLATE inactive; negative | Test System: AMES SALMONELLA TYPHIMURIUM, Strain/Indicator: TA1538, Metabolic Activation: RAT, LIVER, S-9, AROCLOR 1254, Method: STANDARD PLATE inactive; negative | Test System: Ames Salmonella typhimurium, Strain/Indicator: TA97, Metabolic Activation: None, Method: Preincubation inactive; negative | Test System: Ames Salmonella typhimurium, Strain/Indicator: TA97, Metabolic Activation: Rat, liver, S-9, Aroclor 1254, Method: Preincubation inactive; negative | Test System: Ames Salmonella typhimurium, Strain/Indicator: TA97, Metabolic Activation: Syrian hamster, liver, S-9, Aroclor 1254, Method: Preincubation inactive; negative | Test System: Ames Salmonella typhimurium, Strain/Indicator: TA98, Metabolic Activation: None, Method: Preincubation inactive; negative | Test System: Ames Salmonella typhimurium, Strain/Indicator: TA98, Metabolic Activation: Rat, liver, S-9, Aroclor 1254, Method: Preincubation inactive; negative | Test System: Ames Salmonella typhimurium, Strain/Indicator: TA98, Metabolic Activation: Syrian hamster, liver, S-9, Aroclor 1254, Method: Preincubation inactive; negative | Test System: Ames Salmonella typhimurium, Strain/Indicator: TA100, Metabolic Activation: None, Method: Preincubation inactive; negative | Test System: Ames Salmonella typhimurium, Strain/Indicator: TA100, Metabolic Activation: Rat, liver, S-9, Aroclor 1254, Method: Preincubation inactive; negative | Test System: Ames Salmonella typhimurium, Strain/Indicator: TA100, Metabolic Activation: Syrian hamster, liver, S-9, Aroclor 1254, Method: Preincubation inactive; negative | Test System: Ames Salmonella typhimurium, Strain/Indicator: TA1535, Metabolic Activation: None, Method: Preincubation inactive; negative | Test System: Ames Salmonella typhimurium, Strain/Indicator: TA1535, Metabolic Activation: Rat, liver, S-9, Aroclor 1254, Method: Preincubation inactive; negative | Test System: Ames Salmonella typhimurium, Strain/Indicator: TA1535, Metabolic Activation: Syrian hamster, liver, S-9, Aroclor 1254, Method: Preincubation inactive; negative
